The record followed here is ChEMBL document CHEMBL3758170, “From indole to pyrrole, furan, thiophene and pyridine: Search for novel small molecule inhibitors of bacterial transcription initiation complex formation” (Bioorg Med Chem, 2016).

The structures appear in SMILES notation.

Data set [1] deals with Escherichia coli. The data set is described as follows: Antibacterial activity against Escherichia coli DH5[alpha] assessed as inhibition of exponential phase of bacterial growth at 200 uM measured every 10 mins for 16 hrs by FLUOstar Optima plate reader analysis relative to control. It is filed as functional. The conditions noted are these: read-out: GI.
The test system of data set [2] is Bacillus subtilis. Kind of data set: Antibacterial activity against Bacillus subtilis 168 assessed as inhibition of exponential phase of bacterial growth at 200 uM measured every 10 mins for 16 hrs by FLUOstar Optima plate reader analysis relative to control. The conditions noted are these: read-out: GI. It is filed as functional.
For data set [3], the system named is BL21-DE3. The data set is described as follows: Inhibition of Bacillus subtilis C-terminal GST-tagged RNAP beta'-CH expressed in Escherichia coli BL21 (DE3) cells binding interaction with Escherichia coli sigma-70/Bacillus subtilis full length SigmaA2.2 expressed in Escherichia coli C41 (DE3) cells using TMB as substrate at 15 uM preincubated for 1 hr followed by substrate addition by ELISA relative to control. (In general: An ELISA detects its analyte on a solid surface through an enzyme-linked reagent.)

Data set [4] in a line: Solubility of compound in Luria-Bertani medium at 200 uM. Format: physicochemical.

As to `COc1cc(OC)c2c(-c3ccc(Cl)cc3)c[nH]c2c1C(=O)NNC(=O)c1ccncc1Br`, the inhibition of growth at 200 µM in data set [1] is 47%; in data set [2], 74%. For the same compound, in data set [3], the inhibition (commonly the relative decrease from the control value, in per cent) came to 11%. For the same compound, the solubility entry in data set [4] is “soluble”.
